In patent US9586993B2, “CD44v6-derived peptides for treating pancreatic cancer” (AMCURE GMBH, priority 2012, dated 2017):
“Also recorded” adds a separate entry of the source. No end group written: not given here. *: point of attachment. DOTA = O=C(O)CN1CCN(CC(=O)O)CCN(CC(=O)*)CCN(CC(=O)O)CC1; PEG2000 = polyethylene glycol, 2000 Da; Myristoyl = CCCCCCCCCCCCCC(=O)*

What was measured:
[1] = tested on: L3.6p1 pancreatic carcinoma cells; assay: Human orthotopic model, L3.6p1 cells in the pancreas of nude mice; assay type: in vivo, mouse; conditions: for outgrowth / size of the primary tumor: 20 μg per injection i.p. three times per week for three weeks; for outgrowth / size of the primary tumor / metastasis formation (liver): start one week after implantation; for metastasis formation (liver): 20 μg per injection i.p. three times per week
Method: In the case of the human orthotopic model, L3.6p1 pancreatic carcinoma cells (passage 24-26) were suspended in Hank's balanced salt solution (Invitrogen, Karlsruhe, Germany) after trypsinization. The cells were injected orthotopically in the pancreas of male nude mice as described (Bruns C J et al. (1999) Neoplasia 1(1):50-62). Two groups of 15 mice each were injected i.p. 7 days later with either the human v6 peptide respectively rat control peptide (20 μg). For all experiments described and depicted herein either the rat 14mer control peptide or the human 14mer peptide were used. All experiments were then repeated with the rat 5mer control peptide or the human 5mer peptide (N-R-W-H-E, SEQ ID NO: 2). […] The injection was repeated three times per week for 21 days. Two days after the last treatment the animals were killed.
(§1) 7 μm thick paraffin sections were deparaffinized and rehydrated. For P-Met staining antigen unmasking was achieved by boiling the slides in 1 mM EDTA pH 8.0 followed by incubation for 15 minutes at a sub-boiling temperature, for CD31 staining the sections were treated with Proteinase K (8 μg/ml) for 10 min at 37° C. For immunofluorescence staining of P-Met, unspecific binding was blocked with 5% goat serum (DAKO, Glostrup, Denmark) (diluted in 1×PBS/0.3% Triton X-100) for 60 minutes. In the case of immunohistochemistry, endogenous peroxidases were at first blocked with 3% H2O2 in PBS followed by incubation with biotin blocking system (Dako, Glostrup, Denmark) and then unspecific binding was inhibited by incubation with 5% FCS in PBS. The sections were incubated with the P-Met antibody (D26, dilution 1:50 in 1×PBS/1% BSA/0.3% Triton X-100), Met antibody (C-28, dilution 1:50), GFP antibody (sc-101525, dilution 1:50) or antibody (5 μg/ml) over night or VFF18 (5 μg/ml) o/n at 4° C. After washing in PBS the sections were incubated with Alexa Fluor R 546 goat anti-rabbit (in case of immunofluorescence P-Met and Met staining, dilution 1:500) or a biotinylated secondary antibody (for immunohistochemical stainings rabbit anti-rat antibody for VFF18 and CD31, goat anti-rabbit for P-Met, cleaved Caspase-3 and cleaved Caspase-8 and rabbit anti-mouse for GFP, dilution 1:500) for 45 minutes. For DAB (3,3′-diaminobenzidine) staining the sections were treated with a streptavidin-peroxidase conjugate (Dako, Glostrup, Denmark) and developed with DAB substrate system (3,3′-diaminobenzidine; Biozol, Eching, Germany) For immunofluorescence DAPI was used for nuclear staining.
The three CD44v6 specific compounds (v6 5mer, PEG840-v6 5mer and PEG2000-v6 5mer of human origin) and a control peptide were applied in three concentrations (2 μg, 20 μg, 200 μg per injection) three times per week i.p. for 4 weeks. One week before start of the treatment the L3.6p1 tumor cells were orthotopically implanted into nude mice.
Animals were implanted orthotopically with L3.6p1 cells. Tumor growth was allowed for one week before the treatment with the linear v6 14mer, the cyclic v6 8mer as well as the control peptide (rat v6 14mer) was started. All peptides were injected three times per week at a concentration of 0.2, 2 and 10 μg per injection for 3 weeks. At the end of the treatment animals were sacrificed.
A comparison of different CD44v6 peptide derivatives was performed in animals bearing a orthotopic L3.6p1 tumor. 10 groups of 5 animals each received a dose of 20 μg peptide per injection three times per week for 3 weeks with the compounds listed in Table 4. Three weeks after starting the treatment the animals were sacrificed and analyzed for macroscopic metastases and tumor volume.

BSp73ASs6 cells = assay: Rat syngeneic model, subcutaneous BSp73ASs6 tumors, metastasis formation; assay type: in vivo; conditions: 200 μg per injection three times a week; for outgrowth of primary tumors: 28 days; for metastasis (axillary lymph nodes and lungs): intra-tumoral or intravenously, start one week after cell injection
Method: In the case of the rat syngeneic model, 1×10^6 pancreatic cells (BSp73AS and its transfectants) were subcutaneously injected into the right posterior flank of the animals. Tumors developed for four weeks. During this time period animals injected with BSp73ASs6 cells expressing Met-shRNA or control-shRNA received doxycycline in the drinking water. At the end of the experiment, primary tumors were isolated. Lungs and axillary lymph nodes were analyzed. The tissues were incubated for 24 h in a zinc-fixative (0.5 g calcium acetate, 5.0 g zinc acetate, 5.0 g zinc chloride, in 1 L 0.1 M Tris pH 7.4) and embedded in paraffin for further analysis. In case of peptide or antibody treatment tumors developed for one week before the first treatment. Where indicated, animals received 200 μg of peptide or antibody per injection three times per week for four weeks. Tumor growth was monitored weekly using a caliper Animals were killed at day 28 or 30 after start of the treatment.
For histomorphological analysis paraffin-embedded sections of lungs were stained with hematoxylin and eosin and periodic acid-Schiff (H&E or PAS). Serial sections of the whole tissue blocks were examined by analyzing slices every 20 μm; in each slice, the presence and the extension of the metastatic deposit was assessed, according to the procedure routinely used by pathologists to evaluate the presence of micrometastases.
Rat peptides had the sequences KEKWFENEWQGKNP (SEQ ID NO: 10) and NEWQG (SEQ ID NO: 11). BSp73ASs6 cells were subcutaneously injected into syngeneic rats and rat CD44v6 peptides of SEQ ID NO: 10 or SEQ ID NO: 11 (or mouse control peptides) or the CD44v6 antibody (or IgGs as a control) were injected intra-tumoral or intravenously three times a week. […] This is compatible with the fact that also BSp73AS cells or BSp73ASv1-10Δv6 cells can induce the formation of primary tumors similarly to the v6 transfectants.

[2] = tested on: Met activation and downstream signaling to ERK; assay: HGF-induced activation of Met and ERK in L3.6p1 cells (western blot); assay type: cell-based, human; conditions: HGF 10 ng/ml
Method: Serum-starved cells (24 hours) were induced with the growth factor HGF (10 ng/mL) at 37° C. for 5 minutes. Where indicated, the cells were treated with peptides (100 ng/ml) prior to induction at 37° C. for 10 minutes (100 ng/mL CD44v6 peptide or control peptide). Following the induction with HGF, cells were washed with ice-cold phosphate-buffered saline (PBS). To detect activated Met and Erk, cells were lysed in sodium dodecyl sulfate (SDS)-sample buffer containing 100 mM dithiothreitol (DTT), boiled and subjected to western blot analysis using antibodies against phospho-Met and ERK. The loading controls were performed on the same blot after stripping (62.5 mM Tris, pH 6.8, 2% SDS, 0.8% DTT) by probing with the Met respectively ERK antibody. Blots were stained using the enhanced chemiluminescence system (Thermo Fisher Scientific, Schwerte, Germany). Bands in western blot analysis were quantified with the program Image J (National Institutes of Health).
To expand the studies to human pancreatic tumors, the highly metastatic human pancreatic carcinoma cells L3.6p1 (Bruns, et al. Neoplasia (1999), 1(1):50-62) were investigated. These cells originate from the […] cells that have been passaged several times in the liver and the pancreas, a step that rendered them more and more metastatic. It was confirmed that Met is dependent on CD44v6 for its activation and signaling in these cells (FIG. 4A). The L3.6p1 cells were treated with HGF in the presence or absence of a human v6 peptide of SEQ ID NO: 2 or SEQ ID NO:6 and Met activation and downstream signaling to ERK was measured.

[3] = tested on: BSp73ASs6 lung metastases; assay: Apoptosis in established lung metastases (cleaved Caspase-3 and Caspase-8 staining); assay type: in vivo, rat; conditions: for apoptotic cells in lung metastases (cleaved Caspase 3): injection every second day from three weeks after cell injection
Method: as §1
One hypothesis for the disappearance of metastases is that the peptides induce apoptosis of CD44v6-expressing metastatic cells in the secondary organs. In order to test this hypothesis, the experiment described above using the BSp73ASs6 cells was repeated. The cells were injected subcutaneously in syngeneic rats and the tumor was allowed to develop for three weeks. After that time the animals were separated in two groups of 10 animals that were injected either with the specific rat CD44v6 peptide or with the control peptide (mouse) every second day. One day following each injection of the peptide, the lungs of one animal were removed and apoptosis was measured using an antibody that detects the cleaved form of Caspase 3. […] From these experiments, it is concluded that the CD44v6 peptide induces apoptosis of metastatic cells.
To discriminate whether the intrinsic pathway characterized by the release of mitochondrial proteins or the extrinsic pathway activated by ligand-bound death receptors for apoptosis was induced by the v6 peptide the expression of cleaved caspase-8 in the metastases treated with the v6 peptide was investigated. […] From these experiments we conclude that the CD44v6 peptide induces apoptosis of metastatic cells via the extrinsic apoptotic pathway.

[4] = listed as rat-specific peptide (ctrl peptide)

Substance: Myr-KEQWFGNRWHEGYR (Myristoyl-KEQWFGNRWHEGYR) [Myristoyl-14-mer]
- outgrowth / size of the primary tumor [1]: no inhibitory effect on tumor growth

Substance: NRWHE [human 5mer, NRWHE]
- side effects in the animals ([1]; 200 μg per injection i.p. three times per week for 4 weeks): did not lead to side effects

Substance: NEWQG [rat 5mer, rat CD44v6 5mer peptide]
- metastasis and micro-metastasis in lung sections (PAS and H&E staining) (BSp73ASs6 cells): neither metastasis nor micro-metastasis could be detected
- outgrowth of primary tumors (BSp73ASs6 cells): not influenced by either treatment
- metastasis (axillary lymph nodes and lungs) (BSp73ASs6 cells): completely inhibited metastasis
- inhibition of HGF-induced activation (phosphorylation) of Met and ERK [2]: had no influence on receptor activation and signal transduction
- results in the human orthotopic model compared with the 14mer peptides ([1]; 20 μg i.p. three times per week for 21 days): same results as for the 14mer peptides were observed

Substance: PEG2000-KEQWFGNRWHEGYR-OH [PEG2000 14-mer]
- outgrowth / size of the primary tumor [1]: strongest reduction of tumor size
- outgrowth / size of the primary tumor ([1]; listed as PEGylated 14mer (PEG 2000)): significant reduction in tumor growth
- metastasis formation (liver) [1]: decrease of metastatic spreading

Substance: {DOTA}-KEQWFGNRWHEGYR [DOTA CD44v6-14 [r^14]]
- metastasis formation (liver) [1]: complete inhibition of metastasis

Substance: Myr-Y-cy[KGNRWHEG] (Myristoyl-YKGNRWHEG; also: cyclic, closure not given here, Myr-Tyr attached, site not given here) [Myr-Y-cycl 8 mer]
- outgrowth / size of the primary tumor [1]: significant reduction in tumor growth
- metastasis formation (liver) [1]: decrease of metastatic spreading

Substance: DOTA-keqwfGNRWHEGyr [DOTA CD44v6-14 [daa7]]
- metastasis formation (liver) [1]: decrease of metastatic spreading

Substance: KEKWFENEWQGKNP [rat 14mer, rat CD44v6 14mer peptide; control in human systems]
- metastasis and micro-metastasis in lung sections (PAS and H&E staining) (BSp73ASs6 cells): neither metastasis nor micro-metastasis could be detected
- outgrowth of primary tumors (BSp73ASs6 cells): not influenced by either treatment
- metastasis (axillary lymph nodes and lungs) (BSp73ASs6 cells): completely inhibited metastasis
- inhibition of HGF-induced activation (phosphorylation) of Met and ERK [2]: had no influence on receptor activation and signal transduction
- outgrowth / size of the primary tumor [1, 4]: had no influence on metastasis formation or on growth of the primary tumor
- metastasis formation (liver) [1, 4]: neither any influence on metastasis formation; also recorded: had no influence on metastasis formation or on growth of the primary tumor
- apoptosis twelve days after injection ([3]; cleaved Caspase 3): less apoptosis was observed
- time of maximum of apoptosis ([3]; cleaved Caspase 3, injection every second day): eight days after the first injection
- cleaved caspase-8 in lung metastases ([3]; injection every second day): kinetic of activation of caspase-8 similar to the one obtained for caspase-3
- lung metastasis at day twenty-two ([3]; injection every second day): no metastasis could be detected anymore
- apoptotic cells in lung metastases (cleaved Caspase 3) [3]: detected as early as three days after the first injection

Substance: mouse control peptides: mouse CD44v6 peptide used as control in the rat system (WFQNGWQGKNP) [reference compound]
- metastasis (axillary lymph nodes and lungs) (BSp73ASs6 cells): numerous metastases were detected in the lungs
- lung metastasis at day twenty-two ([3]; injection every second day): metastatic spreading was evident in the lungs
- apoptotic cells in lung metastases (cleaved Caspase 3) [3]: No apoptosis at all was detected

Substance: DOTA-cy[KRWHE] [cycl 5 mer]
- outgrowth / size of the primary tumor [1]: strongest reduction of tumor size
- metastasis formation (liver) [1]: complete inhibition of metastasis

Substance: PEG840-KEQWFGNRWHEGYR-OH [PEG840 14-mer]
- outgrowth / size of the primary tumor [1]: significant reduction in tumor growth
- metastasis formation (liver) [1]: decrease of metastatic spreading
